According to ChEMBL document CHEMBL1201862, “PubChem BioAssay data set” (2004):
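Exposure lasted 48 hours, with cells grown in 96-well plates and compounds tested at five concentrations. GI50 = concentration required for 50% inhibition of growth.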 Calls of active or inactive are those of the source. No stated cut-off is given here; in the data, active = GI50 up to about 1.1 µM and inactive = higher.

Tests used:
Test in all cases: inhibition of tumour cell growth, NCI panel, 48 h
[1] = tested on: RXF 393
[2] = tested on: OVCAR-8
[3] = tested on: SF-295
[4] = tested on: NCI-H522
[5] = tested on: OVCAR-4
[6] = tested on: SK-OV-3
[7] = tested on: HCT-116
[8] = tested on: NCI-H23
[9] = tested on: SW-620
[10] = tested on: TK-10
[11] = tested on: EKVX
[12] = tested on: SR
[13] = tested on: RPMI-8226
[14] = tested on: NCI-H460

Measured: GI50

Cn1cc2ccccc2c1-c1nc(F)nc(Oc2ccc3c(c2)CC[C@@H]2C3CC[C@]3(C)C(O)CCC23)n1 (some centres undefined)
inactive: [1] 22.6 µM | [2] 17.4 µM | [3] 15.3 µM | [4] 10.9 µM | [5] 14.2 µM | [6] 17.2 µM | [7] 17.5 µM | [8] > 10 µM | [9] 19.5 µM | [10] 16.2 µM | [11] > 10 µM

O=C1COc2cc3c(cc2N1)SCC(=O)N3
inactive: [2] > 100 µM | [3] > 100 µM | [4] > 100 µM | [12] > 100 µM | [5] > 100 µM | [6] > 100 µM | [7] > 100 µM | [13] > 100 µM | [8] > 100 µM | [9] > 100 µM | [10] > 100 µM | [11] 6.41 µM

O=C(O)[C@H](NS(=O)(=O)c1ccc([N+](=O)[O-])cc1)c1ccccc1
inactive: [1] > 100 µM | [2] > 100 µM | [3] > 100 µM | [4] > 100 µM | [5] > 100 µM | [14] > 100 µM | [6] > 100 µM | [7] > 100 µM | [13] > 100 µM | [8] > 100 µM | [9] > 100 µM | [10] > 100 µM | [11] > 100 µM

COc1cccc2c1c1ccc3c(c1n2C)C(=O)C=CC3=O
inactive: [2] 15.3 µM | [3] > 100 µM | [4] 3.89 µM | [12] 2.4 µM | [5] 17.5 µM | [14] 48.4 µM | [6] > 100 µM | [7] 14.2 µM | [13] 2.81 µM | [8] 16.1 µM | [9] 12.1 µM | [10] 18.9 µM

COc1ccc([Se][Se]c2ccc(OC)cc2OC)c(OC)c1
inactive: [1] 2.13 µM | [2] 4.75 µM | [3] 2.1 µM | [4] 1.86 µM | [5] 2.1 µM | [14] 4.29 µM | [6] 32.4 µM | [7] 2.75 µM | [13] 2.48 µM | [8] 2.92 µM | [9] 2.59 µM | [10] 4.06 µM

CCOc1cc2ccc3c4cc(OC)c(OC)cc4cnc3c2cc1OCC
inactive: [2] > 100 µM | [3] > 100 µM | [4] > 100 µM | [5] > 100 µM | [14] > 100 µM | [6] > 100 µM | [7] > 100 µM | [13] > 100 µM | [8] > 100 µM | [9] > 100 µM | [10] > 100 µM | [11] > 100 µM

CNC1=C(C)C(=O)C(C)=C(C(C)(C)CC(=O)n2cc(F)c(=O)[nH]c2=O)C1=O
inactive: [1] > 100 µM | [2] 31.6 µM | [3] > 67.9 µM | [4] 35 µM | [14] 2.99 µM | [6] > 100 µM | [7] 8.2 µM | [13] 6.81 µM | [8] 7.5 µM | [9] 39.9 µM | [10] > 59.3 µM | [11] 16.1 µM

C=C1CCC2C(C)(CO)C(O)CCC2(C)C1CC(O)C1=CCOC1=O (centres undefined)
inactive: [2] 36.1 µM | [3] 46.2 µM | [4] 5.36 µM | [12] 18 µM | [5] 61.1 µM | [14] 49.9 µM | [6] 51.5 µM | [7] 26.5 µM | [13] > 100 µM | [8] > 100 µM | [9] 19.8 µM | [10] > 100 µM | [11] 96.2 µM

COc1ccc(C2C(C(=O)O)=C(COC(C)=O)Oc3cc4c(cc32)OCO4)c(OC)c1 (centres undefined)
inactive: [1] > 100 µM | [2] > 100 µM | [3] > 100 µM | [5] > 100 µM | [14] > 100 µM | [6] > 100 µM | [7] > 100 µM | [13] > 100 µM | [8] > 100 µM | [9] > 100 µM | [10] > 100 µM | [11] > 100 µM

COc1cc(C(Cc2ccccc2)NC(C)=O)oc(=O)c1 (centres undefined)
inactive: [1] > 100 µM | [2] > 100 µM | [3] > 100 µM | [4] > 100 µM | [5] > 100 µM | [14] > 100 µM | [6] > 100 µM | [13] > 100 µM | [8] > 100 µM | [9] > 100 µM | [10] 4.14 µM | [11] > 100 µM

C/N=C(\N)c1ccc(NC(=N)c2ccc(C(=N)Nc3ccc(/C(N)=N/C)cc3)cc2)cc1
inactive: [1] > 100 µM | [2] > 100 µM | [3] > 100 µM | [4] > 100 µM | [5] > 100 µM | [14] > 100 µM | [6] > 100 µM | [13] > 100 µM | [9] > 100 µM | [10] > 100 µM

Nc1ccc(C(=O)CC2(O)C(=O)Nc3c(Cl)cc(Cl)cc32)cc1 (centres undefined)
inactive: [1] > 100 µM | [2] > 100 µM | [3] > 100 µM | [4] 42.5 µM | [5] > 100 µM | [14] > 100 µM | [6] > 100 µM | [7] 66.7 µM | [13] 50.9 µM | [8] 83 µM | [9] 25.5 µM | [10] > 100 µM | [11] > 100 µM
